Measurements as given in patent US20150307520A1, “NOVEL HETEROARYL AND HETEROCYCLE COMPOUNDS, COMPOSITIONS AND METHODS THEREOF” (HUTCHISON MEDIPHARMA LIMITED, priority 2012, published 2015).

Legend:
Type in all cases: biochemical
[1] = molecular target: p110δ/p85α (Homo sapiens, UniProt O00329); test: Transcreener KINASE Assay, kinase inhibition of p110δ/p85α; details: for PI3Kδ IH % @ 1 uM: 1 uM test compound; for IC50: read-out: PI3Kδ IC50
Procedure, shortened: (§1)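 Kinase reactions run 80 min at room temperature, pH buffered with 50 mM HEPES plus 3 mM MgCl2 and 0.03% CHAPS; the PIP2/ATP mix added was 30 uM/10 uM. Generated ADP is then read by FP immunoassay.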

[2] = molecular target: p110γ (Homo sapiens, UniProt P48736); test: Transcreener KINASE Assay, kinase inhibition of p110γ; details: for PI3Kγ IH % @ 1 uM: 1 uM test compound; for IC50: read-out: PI3Kγ IC50
Sequence of p110γ (P48736 whole entry, canonical isoform): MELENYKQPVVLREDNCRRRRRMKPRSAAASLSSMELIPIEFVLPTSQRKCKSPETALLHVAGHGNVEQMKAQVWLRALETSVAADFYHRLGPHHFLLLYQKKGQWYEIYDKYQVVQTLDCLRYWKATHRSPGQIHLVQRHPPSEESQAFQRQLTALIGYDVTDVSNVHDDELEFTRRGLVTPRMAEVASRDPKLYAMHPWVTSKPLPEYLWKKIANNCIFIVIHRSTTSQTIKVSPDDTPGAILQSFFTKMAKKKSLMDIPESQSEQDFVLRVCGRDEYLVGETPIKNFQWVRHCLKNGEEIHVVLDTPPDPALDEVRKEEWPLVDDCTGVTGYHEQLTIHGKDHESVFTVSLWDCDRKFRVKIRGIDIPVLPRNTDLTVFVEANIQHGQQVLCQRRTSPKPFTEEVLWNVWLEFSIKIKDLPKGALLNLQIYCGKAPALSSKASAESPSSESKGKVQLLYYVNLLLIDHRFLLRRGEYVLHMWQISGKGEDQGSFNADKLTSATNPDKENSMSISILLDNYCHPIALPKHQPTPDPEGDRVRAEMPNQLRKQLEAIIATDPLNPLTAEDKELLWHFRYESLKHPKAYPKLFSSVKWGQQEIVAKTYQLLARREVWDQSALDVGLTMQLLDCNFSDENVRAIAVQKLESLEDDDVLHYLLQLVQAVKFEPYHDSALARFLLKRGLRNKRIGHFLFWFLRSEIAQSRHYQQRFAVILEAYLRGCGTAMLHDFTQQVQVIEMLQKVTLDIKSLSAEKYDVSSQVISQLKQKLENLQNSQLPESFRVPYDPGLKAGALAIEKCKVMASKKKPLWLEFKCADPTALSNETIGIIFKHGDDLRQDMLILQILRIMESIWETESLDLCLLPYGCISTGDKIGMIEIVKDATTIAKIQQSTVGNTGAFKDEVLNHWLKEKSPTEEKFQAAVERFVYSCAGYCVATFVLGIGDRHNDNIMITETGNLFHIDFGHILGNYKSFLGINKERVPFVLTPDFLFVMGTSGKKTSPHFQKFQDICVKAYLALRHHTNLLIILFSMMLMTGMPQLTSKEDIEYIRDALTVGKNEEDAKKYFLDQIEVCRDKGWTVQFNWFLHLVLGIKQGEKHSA
Procedure, shortened: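 Recombinant PI3K isoforms (p85α complexes or p110γ alone) reacted 80 min at room temperature, then ADP detection mix added for 60 min. ADP formation read by far-red competitive fluorescence polarization immunoassay; IC50 by curve fitting.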

[3] = molecular target: p110β/p85α (Homo sapiens, UniProt P42338); test: Transcreener KINASE Assay, kinase inhibition of p110β/p85α; details: for PI3Kβ IH % @ 1 uM: 1 uM test compound; for IC50: read-out: PI3Kβ IC50
Sequence of p110β/p85α (P42338 whole entry): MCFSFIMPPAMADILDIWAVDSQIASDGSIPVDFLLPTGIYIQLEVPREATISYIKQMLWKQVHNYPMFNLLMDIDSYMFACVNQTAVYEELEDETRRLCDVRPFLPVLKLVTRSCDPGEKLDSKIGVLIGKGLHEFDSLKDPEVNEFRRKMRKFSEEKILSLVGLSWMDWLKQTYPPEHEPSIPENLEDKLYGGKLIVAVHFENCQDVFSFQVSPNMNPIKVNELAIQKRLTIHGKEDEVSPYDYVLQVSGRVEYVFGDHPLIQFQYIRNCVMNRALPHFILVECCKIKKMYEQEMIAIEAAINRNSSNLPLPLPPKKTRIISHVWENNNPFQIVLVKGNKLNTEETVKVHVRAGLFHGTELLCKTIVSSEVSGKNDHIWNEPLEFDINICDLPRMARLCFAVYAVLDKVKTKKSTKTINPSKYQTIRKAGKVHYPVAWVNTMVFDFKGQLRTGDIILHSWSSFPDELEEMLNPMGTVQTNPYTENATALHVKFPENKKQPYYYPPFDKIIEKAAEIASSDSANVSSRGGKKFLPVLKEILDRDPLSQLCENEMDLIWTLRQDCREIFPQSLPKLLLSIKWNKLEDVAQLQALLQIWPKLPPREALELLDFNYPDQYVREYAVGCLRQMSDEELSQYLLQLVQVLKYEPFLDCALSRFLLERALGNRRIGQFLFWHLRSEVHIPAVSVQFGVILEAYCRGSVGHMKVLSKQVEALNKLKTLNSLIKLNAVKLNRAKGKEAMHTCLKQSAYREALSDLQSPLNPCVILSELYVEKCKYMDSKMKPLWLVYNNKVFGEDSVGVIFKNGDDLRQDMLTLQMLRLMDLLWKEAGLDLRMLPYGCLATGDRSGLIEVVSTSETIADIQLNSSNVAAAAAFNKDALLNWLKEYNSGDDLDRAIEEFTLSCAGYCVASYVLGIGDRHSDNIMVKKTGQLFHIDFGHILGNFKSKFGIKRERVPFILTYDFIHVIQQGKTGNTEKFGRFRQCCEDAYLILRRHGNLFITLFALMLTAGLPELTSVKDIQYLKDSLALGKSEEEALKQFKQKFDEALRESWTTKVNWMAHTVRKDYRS
Sequence of p110β/p85α (P27986 2-724 partner): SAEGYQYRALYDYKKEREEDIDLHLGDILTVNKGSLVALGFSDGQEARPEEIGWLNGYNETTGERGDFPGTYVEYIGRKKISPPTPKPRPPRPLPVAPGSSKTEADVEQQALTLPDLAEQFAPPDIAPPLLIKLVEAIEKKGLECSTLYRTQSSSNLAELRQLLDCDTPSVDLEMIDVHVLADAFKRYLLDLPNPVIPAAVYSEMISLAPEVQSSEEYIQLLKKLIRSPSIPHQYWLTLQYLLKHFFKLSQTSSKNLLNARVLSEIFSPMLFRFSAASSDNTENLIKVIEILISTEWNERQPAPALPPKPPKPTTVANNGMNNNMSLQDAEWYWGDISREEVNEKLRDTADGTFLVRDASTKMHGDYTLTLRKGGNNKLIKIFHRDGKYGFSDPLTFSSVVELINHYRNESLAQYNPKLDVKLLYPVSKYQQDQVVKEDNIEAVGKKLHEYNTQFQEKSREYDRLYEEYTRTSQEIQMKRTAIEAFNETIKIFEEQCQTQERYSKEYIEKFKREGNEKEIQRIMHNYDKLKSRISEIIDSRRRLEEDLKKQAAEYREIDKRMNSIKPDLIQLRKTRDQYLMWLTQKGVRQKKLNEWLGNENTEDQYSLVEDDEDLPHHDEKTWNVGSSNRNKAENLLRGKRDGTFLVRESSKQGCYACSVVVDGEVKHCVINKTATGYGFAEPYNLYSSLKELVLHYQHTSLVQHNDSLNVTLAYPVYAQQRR
Procedure, shortened: as §1

Sequence of p110δ/p85α (O00329 whole entry): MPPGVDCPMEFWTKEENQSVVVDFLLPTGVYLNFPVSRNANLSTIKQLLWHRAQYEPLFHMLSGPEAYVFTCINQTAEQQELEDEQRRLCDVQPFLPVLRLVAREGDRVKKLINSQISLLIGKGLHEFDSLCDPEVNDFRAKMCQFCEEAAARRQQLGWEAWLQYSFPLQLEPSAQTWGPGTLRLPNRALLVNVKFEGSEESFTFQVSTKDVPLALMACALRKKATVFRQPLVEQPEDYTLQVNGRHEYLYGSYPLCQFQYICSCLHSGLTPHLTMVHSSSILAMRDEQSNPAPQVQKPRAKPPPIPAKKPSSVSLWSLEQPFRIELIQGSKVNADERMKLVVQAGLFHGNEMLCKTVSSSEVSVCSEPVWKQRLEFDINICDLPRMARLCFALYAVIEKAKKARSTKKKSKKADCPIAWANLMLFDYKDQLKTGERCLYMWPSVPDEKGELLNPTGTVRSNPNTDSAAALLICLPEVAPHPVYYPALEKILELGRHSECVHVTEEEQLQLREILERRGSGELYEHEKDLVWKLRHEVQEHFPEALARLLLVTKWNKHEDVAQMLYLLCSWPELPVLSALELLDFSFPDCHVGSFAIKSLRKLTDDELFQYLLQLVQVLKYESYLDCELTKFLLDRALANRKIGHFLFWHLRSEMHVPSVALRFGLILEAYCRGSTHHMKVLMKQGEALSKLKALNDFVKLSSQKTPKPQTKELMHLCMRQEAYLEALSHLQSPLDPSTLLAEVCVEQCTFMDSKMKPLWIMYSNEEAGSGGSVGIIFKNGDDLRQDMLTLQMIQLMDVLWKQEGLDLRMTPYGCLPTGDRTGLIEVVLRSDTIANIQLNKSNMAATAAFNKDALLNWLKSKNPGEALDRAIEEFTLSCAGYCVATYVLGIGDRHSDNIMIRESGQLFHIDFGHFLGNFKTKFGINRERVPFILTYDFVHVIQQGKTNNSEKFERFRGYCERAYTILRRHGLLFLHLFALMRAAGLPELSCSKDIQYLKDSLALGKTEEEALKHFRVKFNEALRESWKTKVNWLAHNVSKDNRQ
Sequence of p110δ/p85α (P27986 whole entry partner): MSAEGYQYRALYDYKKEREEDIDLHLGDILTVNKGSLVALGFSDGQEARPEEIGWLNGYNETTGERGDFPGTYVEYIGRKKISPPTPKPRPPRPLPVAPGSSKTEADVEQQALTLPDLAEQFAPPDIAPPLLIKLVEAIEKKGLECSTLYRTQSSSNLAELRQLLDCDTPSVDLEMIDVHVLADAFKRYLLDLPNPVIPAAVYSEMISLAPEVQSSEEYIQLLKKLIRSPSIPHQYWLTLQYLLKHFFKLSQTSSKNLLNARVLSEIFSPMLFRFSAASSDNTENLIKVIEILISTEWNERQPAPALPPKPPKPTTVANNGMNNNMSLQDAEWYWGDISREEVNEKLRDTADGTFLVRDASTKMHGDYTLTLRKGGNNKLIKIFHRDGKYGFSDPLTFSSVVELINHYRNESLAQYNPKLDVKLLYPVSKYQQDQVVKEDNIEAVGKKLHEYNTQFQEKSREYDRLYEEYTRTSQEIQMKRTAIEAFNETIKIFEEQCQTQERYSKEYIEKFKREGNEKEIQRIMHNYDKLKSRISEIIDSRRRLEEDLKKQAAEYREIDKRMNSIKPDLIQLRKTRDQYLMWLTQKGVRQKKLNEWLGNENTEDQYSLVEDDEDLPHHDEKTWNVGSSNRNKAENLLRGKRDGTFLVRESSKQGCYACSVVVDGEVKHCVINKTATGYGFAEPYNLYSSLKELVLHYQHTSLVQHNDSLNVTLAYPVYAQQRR

Compound: C[S@@+]([O-])c1c[nH]c2ncnc(N3C[C@@H](C#N)C[C@H]3c3nn4ccc(Cl)c4c(=O)n3-c3cccc(F)c3)c12 [Compound 349, (3S,5S)-5-(5-chloro-3-(3-fluorophenyl)-4-oxo-3,4-dihydropyrrolo[2,1-f][1,2,4]triazin-2-yl)-1-(5-((R)-methylsulfinyl)-7H-pyrrolo[2,3-d]pyrimidin-4-yl)pyrrolidine-3-carbonitrile]
- PI3Kδ IH % @ 1 uM [1]: 92.6%
- IC50 [1]: 111 nM
- PI3Kγ IH % @ 1 uM [2]: 76.6%
- IC50 [2]: 268 nM
- PI3Kβ IH % @ 1 uM [3]: 29.5%

Compound: N#Cc1c[nH]c2ncnc(N3C[C@@H](C#N)C[C@H]3c3nn4ccc(Cl)c4c(=O)n3-c3cccc(F)c3)c12 [Compound 350]
- PI3Kδ IH % @ 1 uM [1]: >100%
- IC50 [1]: 1 nM
- PI3Kγ IH % @ 1 uM [2]: >100%
- IC50 [2]: 4 nM
- PI3Kβ IH % @ 1 uM [3]: >100%
- IC50 [3]: 35 nM

Compound: N#Cc1cnc(N)nc1N1C[C@@H](C#N)C[C@H]1c1nn2ccc(Cl)c2c(=O)n1-c1ccccc1 [Compound 351]
- PI3Kδ IH % @ 1 uM [1]: >100%
- IC50 [1]: 1 nM
- PI3Kγ IH % @ 1 uM [2]: 95.5%
- IC50 [2]: 3 nM
- PI3Kβ IH % @ 1 uM [3]: 89.6%
- IC50 [3]: 81 nM

Compound: C[S+]([O-])c1n[nH]c2ncnc(N3CCC[C@H]3c3nn4ccc(Cl)c4c(=O)n3-c3ccccc3)c12 (stereo partly drawn) [Compound 352, 5-chloro-2-((2S)-1-(3-(methylsulfinyl)-1H-pyrazolo[3,4-d]pyrimidin-4-yl)pyrrolidin-2-yl)-3-phenylpyrrolo[2,1-f][1,2,4]triazin-4(3H)-one]
- PI3Kδ IH % @ 1 uM [1]: >100%
- IC50 [1]: 34 nM
- PI3Kγ IH % @ 1 uM [2]: 97.2%
- IC50 [2]: 11 nM
- PI3Kβ IH % @ 1 uM [3]: 40.7%

Compound: C[S+]([O-])c1n[nH]c2ncnc(N3CC[C@H]3c3nn4ccc(Cl)c4c(=O)n3-c3ccccc3)c12 (stereo partly drawn) [Compound 353]
- PI3Kδ IH % @ 1 uM [1]: 33.8%
- PI3Kγ IH % @ 1 uM [2]: 79.2%
- IC50 [2]: 223 nM
- PI3Kβ IH % @ 1 uM [3]: 14.6%

Compound: CC(O)c1cnc(N)nc1N1CC[C@H]1c1nn2ccc(Cl)c2c(=O)n1-c1ccccc1 (stereo partly drawn) [Compound 357, 2-((2S)-1-(2-amino-5-(1-hydroxyethyl)pyrimidin-4-yl)azetidin-2-yl)-5-chloro-3-phenylpyrrolo[2,1-f][1,2,4]triazin-4(3H)-one]
- PI3Kδ IH % @ 1 uM [1]: 37.9%
- PI3Kγ IH % @ 1 uM [2]: 66.2%
- PI3Kβ IH % @ 1 uM [3]: 5%

Compound: N#C[C@@H]1C[C@@H](c2nn3ccc(Cl)c3c(=O)n2-c2ccccc2)N(c2ncnc3[nH]cnc23)C1 [Compound 358, (3R,5S)-5-(5-chloro-4-oxo-3-phenyl-3,4-dihydropyrrolo[2,1-f][1,2,4]triazin-2-yl)-1-(9H-purin-6-yl)pyrrolidine-3-carbonitrile]
- PI3Kδ IH % @ 1 uM [1]: >100%
- IC50 [1]: 17 nM
- PI3Kγ IH % @ 1 uM [2]: >100%
- IC50 [2]: 66 nM
- PI3Kβ IH % @ 1 uM [3]: 62.0%
- IC50 [3]: 269 nM

Compound: N#C[C@H]1C[C@@H](c2nn3ccc(Cl)c3c(=O)n2-c2ccccc2)N(c2ncnc3[nH]cnc23)C1 [Compound 359]
- PI3Kδ IH % @ 1 uM [1]: >100%
- IC50 [1]: 1 nM
- PI3Kγ IH % @ 1 uM [2]: >100%
- IC50 [2]: 3 nM
- PI3Kβ IH % @ 1 uM [3]: 94.8%
- IC50 [3]: 44 nM

Compound: N#Cc1c[nH]c2ncnc(N3C[C@@H](C#N)C[C@H]3c3nn4ccc(Cl)c4c(=O)n3-c3ccccc3)c12 [Compound 360]
- PI3Kδ IH % @ 1 uM [1]: 99.2%
- IC50 [1]: 1 nM
- PI3Kγ IH % @ 1 uM [2]: >100%
- IC50 [2]: 5 nM
- PI3Kβ IH % @ 1 uM [3]: 95.3%
- IC50 [3]: 12 nM

Compound: N#C[C@H]1C[C@@H](c2nn3ccc(Cl)c3c(=O)n2-c2ccc(F)cc2)N(c2ncnc3[nH]cnc23)C1 [Compound 361]
- PI3Kδ IH % @ 1 uM [1]: 97.9%
- IC50 [1]: 25 nM
- PI3Kγ IH % @ 1 uM [2]: >100%
- IC50 [2]: 27 nM
- PI3Kβ IH % @ 1 uM [3]: 79.2%
- IC50 [3]: 103 nM

Compound: CCC(=O)c1cnc(N)nc1N1CC[C@H]1c1nn2ccc(Cl)c2c(=O)n1-c1ccccc1 [Compound 362]
- PI3Kδ IH % @ 1 uM [1]: 56.0%
- PI3Kγ IH % @ 1 uM [2]: 97.4%
- IC50 [2]: 40 nM
- PI3Kβ IH % @ 1 uM [3]: 4.1%

Compound: O=c1c2c(Cl)ccn2cc(C2CCCN2c2ncnc3[nH]cnc23)n1-c1ccccc1 (stereo not drawn) [Compound 363, 3-(1-(9H-purin-6-yl)pyrrolidin-2-yl)-8-chloro-2-phenylpyrrolo[1,2-a]pyrazin-1(2H)-one]
- PI3Kδ IH % @ 1 uM [1]: 97.5%
- IC50 [1]: 6 nM
- PI3Kγ IH % @ 1 uM [2]: 98.3%
- IC50 [2]: 27 nM
- PI3Kβ IH % @ 1 uM [3]: 68.3%

Compound: N#Cc1c[nH]c2ncnc(N3CCCC3c3cn4ccc(Cl)c4c(=O)n3-c3ccccc3)c12 (stereo not drawn) [Compound 364]
- PI3Kδ IH % @ 1 uM [1]: 99.1%
- IC50 [1]: 2 nM
- PI3Kγ IH % @ 1 uM [2]: >100%
- IC50 [2]: 17 nM
- PI3Kβ IH % @ 1 uM [3]: 88.2%
- IC50 [3]: 56 nM

Compound: CS(=O)(=O)[C@H]1C[C@@H](c2nn3ccc(Cl)c3c(=O)n2-c2ccccc2)N(c2ncnc3[nH]cc(C#N)c23)C1 [Compound 365, 4-((2S,4S)-2-(5-chloro-4-oxo-3-phenyl-3,4-dihydropyrrolo[2,1-f][1,2,4]triazin-2-yl)-4-(methylsulfonyl)pyrrolidin-1-yl)-7H-pyrrolo[2,3-d]pyrimidine-5-carbonitrile]
- PI3Kδ IH % @ 1 uM [1]: 98.0%
- IC50 [1]: 3 nM
- PI3Kγ IH % @ 1 uM [2]: 88.6%
- IC50 [2]: 25 nM
- PI3Kβ IH % @ 1 uM [3]: 79.0%
- IC50 [3]: 275 nM

Compound: CS(=O)(=O)[C@H]1C[C@@H](c2nn3ccc(Cl)c3c(=O)n2-c2ccccc2)N(c2ncnc3[nH]cnc23)C1 [Compound 366]
- PI3Kδ IH % @ 1 uM [1]: 97.1%
- IC50 [1]: 11 nM
- PI3Kγ IH % @ 1 uM [2]: 86.8%
- IC50 [2]: 89 nM
- PI3Kβ IH % @ 1 uM [3]: 74.4%
- IC50 [3]: 300 nM

Compound: CC(=O)c1cnc(N)nc1N1CCC[C@H]1c1nn2ccc(Cl)c2c(=O)n1-c1ccccc1 [Compound 369, (S)-2-(1-(5-acetyl-2-aminopyrimidin-4-yl)pyrrolidin-2-yl)-5-chloro-3-phenylpyrrolo[2,1-f][1,2,4]triazin-4(3H)-one]
- PI3Kδ IH % @ 1 uM [1]: >100%
- IC50 [1]: 2 nM
- PI3Kγ IH % @ 1 uM [2]: 90.4%
- IC50 [2]: 3 nM
- PI3Kβ IH % @ 1 uM [3]: 68.8%
- IC50 [3]: 242 nM

Compound: N#Cc1c[nH]c2ncnc(N3CC[C@H]3c3nn4ccc(Cl)c4c(=O)n3CC3CC3)c12 [Compound 371, (S)-4-(2-(5-chloro-3-(cyclopropylmethyl)-4-oxo-3,4-dihydropyrrolo[2,1-f][1,2,4]triazin-2-yl)azetidin-1-yl)-7H-pyrrolo[2,3-d]pyrimidine-5-carbonitrile]
- PI3Kδ IH % @ 1 uM [1]: 89.8%
- IC50 [1]: 70 nM
- PI3Kγ IH % @ 1 uM [2]: 74.4%
- IC50 [2]: 317 nM
- PI3Kβ IH % @ 1 uM [3]: 17.5%

Compound: CS(=O)(=O)CCn1c([C@@H]2CCCN2c2ncnc3[nH]cnc23)nn2ccc(Cl)c2c1=O [Compound 372]
- PI3Kδ IH % @ 1 uM [1]: 84.8%
- IC50 [1]: 100 nM
- PI3Kγ IH % @ 1 uM [2]: 87.7%
- IC50 [2]: 297 nM
- PI3Kβ IH % @ 1 uM [3]: 42.6%

Compound: O=c1c2c(Cl)ccn2nc([C@@H]2CCCN2c2ncnc3[nH]cnc23)n1C1CCC1 [Compound 374]
- IC50 [1]: 4 nM
- IC50 [2]: 155 nM
- PI3Kβ IH % @ 1 uM [3]: 58.7%
- IC50 [3]: 517 nM

Compound: N#Cc1c[nH]c2ncnc(N3CC[C@H]3c3nn4ccc(Cl)c4c(=O)n3C3CCC3)c12 [Compound 375]
- PI3Kδ IH % @ 1 uM [1]: 92.6%
- IC50 [1]: 43 nM
- PI3Kγ IH % @ 1 uM [2]: 65.7%
- PI3Kβ IH % @ 1 uM [3]: 32.9%

Compound: N#Cc1cnc(N)nc1N1CCC[C@H]1c1nn2ccc(Cl)c2c(=O)n1C1CCC1 [Compound 376]
- PI3Kδ IH % @ 1 uM [1]: 99.1%
- IC50 [1]: 6 nM
- PI3Kγ IH % @ 1 uM [2]: 93.2%
- IC50 [2]: 26 nM
- PI3Kβ IH % @ 1 uM [3]: 54.8%

Compound: Cc1nc(N)nc(N2CC[C@H]2c2nn3ccc(Cl)c3c(=O)n2-c2ccccc2)c1Cl [Compound 377, (S)-2-(1-(2-amino-5-chloro-6-methylpyrimidin-4-yl)azetidin-2-yl)-5-chloro-3-phenylpyrrolo[2,1-f][1,2,4]triazin-4(3H)-one]
- PI3Kδ IH % @ 1 uM [1]: 98.0%
- IC50 [1]: 34 nM
- PI3Kγ IH % @ 1 uM [2]: 96.3%
- IC50 [2]: 45 nM
- PI3Kβ IH % @ 1 uM [3]: 39.8%

Compound: COc1nc(N)nc(N2CC[C@H]2c2nn3ccc(Cl)c3c(=O)n2-c2ccccc2)c1C#N [Compound 378, (S)-2-amino-4-(2-(5-chloro-4-oxo-3-phenyl-3,4-dihydropyrrolo[2,1-f][1,2,4]triazin-2-yl)azetidin-1-yl)-6-methoxypyrimidine-5-carbonitrile]
- PI3Kδ IH % @ 1 uM [1]: 87.2%
- IC50 [1]: 220 nM
- PI3Kγ IH % @ 1 uM [2]: >100%
- IC50 [2]: 179 nM
- PI3Kβ IH % @ 1 uM [3]: 34.5%

Compound: Nc1nc2c(c(N3CC[C@H]3c3nn4ccc(Cl)c4c(=O)n3-c3ccccn3)n1)C(=O)CCN2 [Compound 379]
- IC50 [1]: 59 nM
- IC50 [2]: 35 nM
- PI3Kβ IH % @ 1 uM [3]: 14.5%

Compound: N#Cc1c[nH]c2ncnc(N3CC(=O)C[C@H]3c3nn4ccc(Cl)c4c(=O)n3-c3ccccc3)c12 [Compound 380, (S)-4-(2-(5-chloro-4-oxo-3-phenyl-3,4-dihydropyrrolo[2,1-f][1,2,4]triazin-2-yl)-4-oxopyrrolidin-1-yl)-7H-pyrrolo[2,3-d]pyrimidine-5-carbonitrile]
- PI3Kδ IH % @ 1 uM [1]: 98.0%
- IC50 [1]: 1 nM
- PI3Kγ IH % @ 1 uM [2]: >100%
- IC50 [2]: 10 nM
- PI3Kβ IH % @ 1 uM [3]: 87.8%
- IC50 [3]: 65 nM

Compound: O=C1C[C@@H](c2nn3ccc(Cl)c3c(=O)n2-c2ccccc2)N(c2ncnc3[nH]cnc23)C1 [Compound 381]
- IC50 [1]: 3 nM
- IC50 [2]: 29 nM
- IC50 [3]: 199 nM

Compound: C[C@@H](Nc1nc(N)ncc1C#N)c1cc2ncc(Cl)n2c(=O)n1-c1ccccc1 [Compound 384, (R)-2-amino-4-((1-(3-chloro-5-oxo-6-phenyl-5,6-dihydroimidazo[1,2-c]pyrimidin-7-yl)ethyl)amino)pyrimidine-5-carbonitrile]
- PI3Kδ IH % @ 1 uM [1]: 91.0%
- IC50 [1]: 240 nM
- PI3Kγ IH % @ 1 uM [2]: 53.6%
- PI3Kβ IH % @ 1 uM [3]: 24.7%
